In patent publication US20050239753A1, “Methods of inhibition of MMTV-like viruses” (GILEAD SCIENCES, INC., priority 2004, published 2005):

How the values were obtained:
[1] = target: T1, MMTV RT (Mouse mammary tumor virus, UniProt P03365); experiment: MMTV RT activity, filter-based [33P]dNTP incorporation assay on lysed MMTV particles; type: biochemical; parameters: MMTV particles were isolated and concentrated from MM5MT cells (ATCC) after induction with dexamethasone and insulin; host or cells: MM5MT cells (virus-producing mouse mammary tumour line), induced with dexamethasone and insulin; lysed virions; conditions: for potency against MMTV RT relative to 3TCppp: more potent than 3TCppp
T1 sequence (P03365 861-1436): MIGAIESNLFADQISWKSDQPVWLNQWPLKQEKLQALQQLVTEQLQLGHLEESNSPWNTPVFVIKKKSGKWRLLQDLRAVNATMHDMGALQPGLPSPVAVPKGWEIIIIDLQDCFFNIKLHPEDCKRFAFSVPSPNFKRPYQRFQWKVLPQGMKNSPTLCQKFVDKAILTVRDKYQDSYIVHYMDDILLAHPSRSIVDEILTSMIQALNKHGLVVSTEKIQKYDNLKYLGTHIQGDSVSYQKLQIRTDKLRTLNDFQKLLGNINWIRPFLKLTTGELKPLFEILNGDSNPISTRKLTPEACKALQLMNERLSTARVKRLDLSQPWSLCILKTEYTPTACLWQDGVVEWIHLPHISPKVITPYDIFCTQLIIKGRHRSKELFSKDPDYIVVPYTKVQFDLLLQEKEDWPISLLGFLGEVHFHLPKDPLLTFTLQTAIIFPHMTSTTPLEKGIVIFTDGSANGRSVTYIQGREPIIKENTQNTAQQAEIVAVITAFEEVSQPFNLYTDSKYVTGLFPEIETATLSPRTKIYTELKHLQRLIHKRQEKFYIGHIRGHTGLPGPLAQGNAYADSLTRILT
Method: MMTV particles were isolated and concentrated from MM5MT cells (ATCC) after induction with dexamethasone and insulin as previously described (Fine, D., et al., In Vitro 12:693-701, 1976). Lysed particles were assayed for RT activity using a standard filter-based, [^33P]dNTP incorporation assay (modified from Wu, J., et al., J. Biol. Chem. 268:9980-9985, 1993). Inhibition of the RT activity was measured by adding the test compounds, the acyclic nucleoside diphosphophosphonates and cyclic nucleoside triphosphates, at various concentrations and 50% inhibitory concentrations (IC50) were calculated for each compound. All compounds tested were active against the MMTV RT. […] The activity of AZTppp against the MMTV RT as previously observed was confirmed with an IC50 value of 0.4 μM.

[2] = target: T1, MMTV RT; conditions: cited from earlier work

Structure (SMILES) | IC50 [1] | activity against the MMTV RT [1] | potency against MMTV RT relative to 3TCppp [1] | direct inhibition of the MMTV RT enzyme compared with HIV RT enzyme [2]
C[C@H](Cn1cnc2c(N)ncnc21)OCP(=O)(O)OP(=O)(O)OP(=O)(O)O [PMPApp] | ~4 µM | active | 25 fold | 
Nc1ccn([C@@H]2CS[C@H](COP(=O)(O)OP(=O)(O)OP(=O)(O)O)O2)c(=O)n1 [3TCppp, reference compound] | 108 µM |  |  | 
Nc1nc(=O)n([C@@H]2CS[C@H](COP(=O)(O)OP(=O)(O)OP(=O)(O)O)O2)cc1F [FTCppp, reference compound] | 44 µM |  |  | 
Cc1cn([C@H]2C[C@H](N=[N+]=[N-])[C@@H](COP(=O)(O)OP(=O)(O)OP(=O)(O)O)O2)c(=O)[nH]c1=O [AZTppp, reference compound] | 0.4 µM |  |  | as efficiently as the HIV RT enzyme
Nc1ncnc2c1ncn2CCOCP(=O)(O)OP(=O)(O)OP(=O)(O)O [PMEApp] | ~4 µM | active | 25 fold | 
